Laboratory results from patent US20250352512A2, “C4-S[…] DERIVATIVES AND METHODS OF USING” (priority 2022, published 2025).
Where two headings read alike, the source gives them in different places.

Tests used:
Test in all cases: cell-based
[1] = molecular target: T1, CHRM1 (Homo sapiens, UniProt P11229)
T1 sequence (P11229 1-460): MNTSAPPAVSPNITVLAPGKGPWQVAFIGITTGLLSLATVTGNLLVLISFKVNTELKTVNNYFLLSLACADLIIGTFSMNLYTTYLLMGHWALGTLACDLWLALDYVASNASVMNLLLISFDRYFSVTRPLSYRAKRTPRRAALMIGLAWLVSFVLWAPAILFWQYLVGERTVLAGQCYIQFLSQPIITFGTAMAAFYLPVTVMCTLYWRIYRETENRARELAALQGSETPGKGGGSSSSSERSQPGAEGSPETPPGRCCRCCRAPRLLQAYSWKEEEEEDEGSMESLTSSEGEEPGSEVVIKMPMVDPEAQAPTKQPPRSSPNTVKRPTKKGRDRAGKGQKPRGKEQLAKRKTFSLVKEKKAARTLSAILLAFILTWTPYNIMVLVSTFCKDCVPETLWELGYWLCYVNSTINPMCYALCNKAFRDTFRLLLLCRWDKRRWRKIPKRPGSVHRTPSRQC

[2] = molecular target: T1, CHRM1; remark: listed apart in the source
[3] = molecular target: CNR1 (Homo sapiens, UniProt P21554)
[4] = molecular target: HTR1B (5-HTR1B) (Homo sapiens, UniProt P28222)
[5] = molecular target: SERT (Homo sapiens, UniProt P31645)
[6] = molecular target: NMDAR (Homo sapiens, UniProt Q05586+Q13224)
[7] = CHRM1, GPCR, AGN (agonist), read-out: EC50
[8] = CHRM1, GPCR, ANT (antagonist), read-out: IC50
[9] = CNR1, GPCR, ANT (antagonist), read-out: IC50
[10] = HTR1B, GPCR, ANT (antagonist), read-out: IC50
[11] = SERT, transporter, BL (blocker), read-out: IC50
[12] = NMDAR, ion channel, OP (opener), read-out: EC50

Chain of HTR1B (5-HTR1B) (P28222 whole entry): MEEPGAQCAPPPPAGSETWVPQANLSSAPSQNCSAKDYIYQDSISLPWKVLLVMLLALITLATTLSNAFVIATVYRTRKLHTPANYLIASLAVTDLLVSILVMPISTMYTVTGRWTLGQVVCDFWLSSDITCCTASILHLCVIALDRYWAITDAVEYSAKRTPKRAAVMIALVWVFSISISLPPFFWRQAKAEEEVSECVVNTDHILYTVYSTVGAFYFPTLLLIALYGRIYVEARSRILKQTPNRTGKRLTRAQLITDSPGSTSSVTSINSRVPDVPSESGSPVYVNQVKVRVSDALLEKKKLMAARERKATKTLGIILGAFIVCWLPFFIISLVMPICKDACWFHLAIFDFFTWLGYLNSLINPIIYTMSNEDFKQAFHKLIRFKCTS
Chain of NMDAR (Q13224 27-1484, other chains not shown): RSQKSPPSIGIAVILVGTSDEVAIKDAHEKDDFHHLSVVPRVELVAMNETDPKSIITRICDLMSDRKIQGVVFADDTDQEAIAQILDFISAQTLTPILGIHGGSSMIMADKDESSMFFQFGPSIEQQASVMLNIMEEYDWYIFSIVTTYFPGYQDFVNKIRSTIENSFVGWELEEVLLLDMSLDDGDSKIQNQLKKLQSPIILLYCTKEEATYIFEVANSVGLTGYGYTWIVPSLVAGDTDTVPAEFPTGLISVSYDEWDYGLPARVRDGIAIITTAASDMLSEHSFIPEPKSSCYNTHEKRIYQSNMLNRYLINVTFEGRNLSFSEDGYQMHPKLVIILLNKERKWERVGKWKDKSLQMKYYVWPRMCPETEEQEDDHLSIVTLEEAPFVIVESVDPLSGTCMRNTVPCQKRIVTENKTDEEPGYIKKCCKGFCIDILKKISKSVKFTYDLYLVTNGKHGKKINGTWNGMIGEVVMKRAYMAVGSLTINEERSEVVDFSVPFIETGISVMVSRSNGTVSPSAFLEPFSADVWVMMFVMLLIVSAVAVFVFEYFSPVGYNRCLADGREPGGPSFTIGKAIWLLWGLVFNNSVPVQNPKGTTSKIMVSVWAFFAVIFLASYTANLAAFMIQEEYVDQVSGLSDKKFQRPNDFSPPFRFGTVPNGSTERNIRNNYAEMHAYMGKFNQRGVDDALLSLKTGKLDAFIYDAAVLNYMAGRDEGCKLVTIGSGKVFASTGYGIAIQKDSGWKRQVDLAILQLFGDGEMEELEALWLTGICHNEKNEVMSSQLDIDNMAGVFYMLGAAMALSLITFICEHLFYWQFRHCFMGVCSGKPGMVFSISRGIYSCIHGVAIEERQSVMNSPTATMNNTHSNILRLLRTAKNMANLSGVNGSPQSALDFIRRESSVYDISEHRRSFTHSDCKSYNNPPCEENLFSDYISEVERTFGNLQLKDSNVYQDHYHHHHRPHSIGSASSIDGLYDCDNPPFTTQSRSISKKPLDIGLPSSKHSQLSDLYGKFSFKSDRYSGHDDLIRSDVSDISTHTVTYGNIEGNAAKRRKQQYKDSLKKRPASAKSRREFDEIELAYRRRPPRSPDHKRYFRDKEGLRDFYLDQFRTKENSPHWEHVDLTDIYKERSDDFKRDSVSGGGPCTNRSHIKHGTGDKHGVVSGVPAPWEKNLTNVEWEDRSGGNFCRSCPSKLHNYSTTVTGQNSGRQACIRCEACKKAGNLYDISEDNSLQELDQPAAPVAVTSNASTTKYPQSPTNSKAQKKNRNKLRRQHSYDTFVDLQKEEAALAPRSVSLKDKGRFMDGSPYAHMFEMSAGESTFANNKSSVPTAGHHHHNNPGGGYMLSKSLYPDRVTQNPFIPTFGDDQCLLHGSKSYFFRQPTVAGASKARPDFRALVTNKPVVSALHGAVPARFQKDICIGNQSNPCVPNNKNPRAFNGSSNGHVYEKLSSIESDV
Chain of SERT (P31645 whole entry): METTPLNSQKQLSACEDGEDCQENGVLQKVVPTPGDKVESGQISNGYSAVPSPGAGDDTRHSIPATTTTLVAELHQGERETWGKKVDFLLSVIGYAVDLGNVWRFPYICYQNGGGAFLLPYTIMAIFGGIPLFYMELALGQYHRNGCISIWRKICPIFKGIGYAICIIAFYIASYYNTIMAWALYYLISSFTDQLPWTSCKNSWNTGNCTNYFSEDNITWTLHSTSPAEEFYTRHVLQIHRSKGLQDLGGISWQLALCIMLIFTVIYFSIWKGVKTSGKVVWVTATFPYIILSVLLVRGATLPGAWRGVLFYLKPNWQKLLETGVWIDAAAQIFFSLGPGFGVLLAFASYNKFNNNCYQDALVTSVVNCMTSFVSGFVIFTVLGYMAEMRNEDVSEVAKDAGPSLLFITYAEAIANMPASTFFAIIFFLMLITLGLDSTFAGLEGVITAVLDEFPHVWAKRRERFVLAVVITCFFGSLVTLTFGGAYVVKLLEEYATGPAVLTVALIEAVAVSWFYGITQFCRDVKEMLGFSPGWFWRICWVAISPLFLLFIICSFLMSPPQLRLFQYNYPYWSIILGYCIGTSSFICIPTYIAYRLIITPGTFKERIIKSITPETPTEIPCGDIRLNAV
Chain of CNR1 (P21554 whole entry): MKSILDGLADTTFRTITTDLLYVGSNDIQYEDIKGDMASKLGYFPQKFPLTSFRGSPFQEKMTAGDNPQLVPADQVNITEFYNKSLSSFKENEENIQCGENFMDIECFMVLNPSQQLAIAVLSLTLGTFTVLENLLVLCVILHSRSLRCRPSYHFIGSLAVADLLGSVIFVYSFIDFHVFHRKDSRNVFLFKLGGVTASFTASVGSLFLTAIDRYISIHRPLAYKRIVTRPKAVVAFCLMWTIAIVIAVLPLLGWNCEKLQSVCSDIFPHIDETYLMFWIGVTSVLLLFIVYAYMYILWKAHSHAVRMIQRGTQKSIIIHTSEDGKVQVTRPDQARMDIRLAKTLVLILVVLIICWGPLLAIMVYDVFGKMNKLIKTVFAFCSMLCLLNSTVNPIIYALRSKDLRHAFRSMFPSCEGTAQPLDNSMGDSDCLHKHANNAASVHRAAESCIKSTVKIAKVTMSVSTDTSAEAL

SMILES | EC50 [1, 7] [µM] | IC50 [2, 8] [µM] | IC50 [3, 9] [µM] | IC50 [4, 10] [µM] | IC50 [5, 11] [µM] | EC50 [6, 12] [µM] | IC50 [3] [µM] | EC50 [1] [µM] | IC50 [4] [µM] | EC50 [6] [µM] | IC50 [2] [µM] | IC50 [5] [µM]
CCCCC(=O)OCOc1cccc2[nH]cc(CCN(C)C)c12 [D(III)] | > 100 | 52.6 | > 100 | > 100 | > 100 | > 100 | – | – | – | – | – | –
CN(C)Cc1c[nH]c2cccc(O[Si](C)(C)C(C)(C)C)c12 [A(IV)] | > 100 | 25.8 | > 100 | > 100 | > 100 | > 100 | – | – | – | – | – | –
CC(C)OC(=O)OCOc1cccc2c1c(CCN(C)C)cn2COC(=O)OC(C)C [D(XIII)] | > 100 | > 100 | – | > 100 | > 100 | > 100 | > 100 | – | – | – | – | –
CN(C)CCc1c[nH]c2cccc(OP(=O)(Oc3ccccc3)Oc3ccccc3)c12 [F(I)] | – | 39.9 | – | – | 39.2 | – | 17.2 | > 100 | > 100 | > 100 | – | –
CC(C)[Si](Oc1cccc2[nH]cc(CN(C)C)c12)(C(C)C)C(C)C [A(V)] | > 100 | > 100 | > 100 | > 100 | > 100 | 87.5 | – | – | – | – | – | –
CN(C)CCc1c[nH]c2cccc(OC(=O)OCC3CC3)c12 [B(III)] | > 100 | 53 | > 100 | > 100 | > 100 | > 100 | – | – | – | – | – | –
CN(C)CCc1c[nH]c2cccc(OC(=O)OCc3ccccc3)c12 [B(II)] | – | – | – | – | – | – | 68.6 | > 100 | > 100 | > 100 | 24.5 | 10.4
CCCC(=O)OCOc1cccc2[nH]cc(CCN(C)C)c12 [D(IV)] | > 100 | > 100 | > 100 | > 100 | > 100 | > 100 | – | – | – | – | – | –
